3 compounds from patent US8114865B2, “Indazole derivatives as kinase inhibitors for the treatment of cancer” (Nerviano Medical Sciences S.R.L., priority 2006, dated 2012) can be followed below.

By IC50 is commonly meant the concentration that gives 50% inhibition.

One experiment concerns the target T1, Aurora-2 (Homo sapiens, UniProt O14965).
T1 sequence (O14965 1-403): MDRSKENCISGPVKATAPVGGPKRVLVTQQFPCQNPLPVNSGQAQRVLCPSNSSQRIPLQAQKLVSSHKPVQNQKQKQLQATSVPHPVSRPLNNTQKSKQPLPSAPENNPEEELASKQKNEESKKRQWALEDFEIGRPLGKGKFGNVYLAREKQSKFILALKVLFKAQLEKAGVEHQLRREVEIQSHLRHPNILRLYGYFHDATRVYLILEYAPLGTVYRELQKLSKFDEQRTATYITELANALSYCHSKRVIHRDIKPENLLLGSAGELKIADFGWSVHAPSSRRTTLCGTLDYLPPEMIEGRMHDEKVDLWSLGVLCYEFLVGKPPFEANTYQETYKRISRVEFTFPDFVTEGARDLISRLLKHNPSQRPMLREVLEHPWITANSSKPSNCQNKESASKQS
Description: Biochemical assay for inhibitors of Aurora-2 kinase activity. The conditions noted are these: read-out: Aur2 IC50. The procedure: The in vitro kinase inhibition assay was conducted mimilarly as described for IGF-1R.
The kinase buffer was composed of 50 mM HEPES, pH 7.0, 10 mM MgCl2, 1 mM DTT, 3 microM Na3VO4, and 0.2 mg/mL BSA.
The kinase assay was run with an enzyme concentration of 2.5 nM, 10 microM ATP, 1 nM ^33P-γ-ATP, and 8 microM substrate, composed of 4 LRRWSLG repeats.

The next experiment deals with IGF-1R (Homo sapiens, UniProt P08069). The experiment can be described thus: Western blot analysis of receptor phosphorylation following stimulation with IGF-1 in MCF-7 human breast cancer cells. The experiment is classed as cell-based. On the set-up: endogenous in cells; host or cells: MCF-7 (ATCC# HTB-22). The conditions noted are these: starved MCF7 cells, 10 nM IGF1, increasing concentrations of compound, FIG. 1. As for the experimental part:
[formula] where νb is the baseline velocity, v is the observed reaction velocity, vo is the velocity in the absence of inhibitors, and [I] is the inhibitor concentration. Cell-Based Assays for Inhibitors of IGF-1R Kinase Activity Western Blot Analysis of Receptor Phosphorylation Following Stimulation with IGF-1 in MCF-7 Human Breast Cancer Cells
MCF-7 cells (ATCC# HTB-22) were seeded in 12-well tissue culture plates at 2×10^5 cells/well in E-MEM medium (MEM+Earle's BSS+2 mM glutamine+0.1 mM non-essential amino acids)+10% FCS, and incubated overnight at 37° C., 5% CO2, 100% relative humidity. Cells were then starved by replacing E-MEM+10% FCS with E-MEM+0.1% BSA, and incubating overnight. After this incubation, wells were treated with desired concentrations of compound for 1 hour at 37° C., and were then stimulated with 10 nM recombinant human IGF-1 (Invitrogen, Carlsbad, Calif., USA) for 10 minutes at 37° C. Cells were then washed with PBS and lysed in 100 microL/well cell lysis buffer (M-PER Mammalian Protein Extraction Reagent [Product #78501, Pierce, Rockford, Ill., USA]+10 mM EDTA+Protease inhibitor cocktail [Sigma-Aldrich product #P8340]+phosphatase inhibitor cocktail [Sigma-Aldrich products #P2850+#P5726]). Cell lysates were cleared by centrifugation at 10,000×g for 5 minutes, and 10 microg/lane of cleared lysate protein were run on NuPAGE gels (NuPAGE 4-12% 10-lane Bis-Tris gels, Invitrogen) with MOPS running buffer, then transferred onto Hybond-ECL nitrocellulose filters (Amersham Biosciences, Little Chalfont, Buckinghamshire, UK) using Mini PROTEAN II chambers (Bio-Rad Laboratories, Hercules, Calif., USA). […]
On the technique in general: Immunoblotting shows a protein as a band on a membrane.

SMILES strings stand for the structures.

IGF-1R, sequence (P08069 31-1367): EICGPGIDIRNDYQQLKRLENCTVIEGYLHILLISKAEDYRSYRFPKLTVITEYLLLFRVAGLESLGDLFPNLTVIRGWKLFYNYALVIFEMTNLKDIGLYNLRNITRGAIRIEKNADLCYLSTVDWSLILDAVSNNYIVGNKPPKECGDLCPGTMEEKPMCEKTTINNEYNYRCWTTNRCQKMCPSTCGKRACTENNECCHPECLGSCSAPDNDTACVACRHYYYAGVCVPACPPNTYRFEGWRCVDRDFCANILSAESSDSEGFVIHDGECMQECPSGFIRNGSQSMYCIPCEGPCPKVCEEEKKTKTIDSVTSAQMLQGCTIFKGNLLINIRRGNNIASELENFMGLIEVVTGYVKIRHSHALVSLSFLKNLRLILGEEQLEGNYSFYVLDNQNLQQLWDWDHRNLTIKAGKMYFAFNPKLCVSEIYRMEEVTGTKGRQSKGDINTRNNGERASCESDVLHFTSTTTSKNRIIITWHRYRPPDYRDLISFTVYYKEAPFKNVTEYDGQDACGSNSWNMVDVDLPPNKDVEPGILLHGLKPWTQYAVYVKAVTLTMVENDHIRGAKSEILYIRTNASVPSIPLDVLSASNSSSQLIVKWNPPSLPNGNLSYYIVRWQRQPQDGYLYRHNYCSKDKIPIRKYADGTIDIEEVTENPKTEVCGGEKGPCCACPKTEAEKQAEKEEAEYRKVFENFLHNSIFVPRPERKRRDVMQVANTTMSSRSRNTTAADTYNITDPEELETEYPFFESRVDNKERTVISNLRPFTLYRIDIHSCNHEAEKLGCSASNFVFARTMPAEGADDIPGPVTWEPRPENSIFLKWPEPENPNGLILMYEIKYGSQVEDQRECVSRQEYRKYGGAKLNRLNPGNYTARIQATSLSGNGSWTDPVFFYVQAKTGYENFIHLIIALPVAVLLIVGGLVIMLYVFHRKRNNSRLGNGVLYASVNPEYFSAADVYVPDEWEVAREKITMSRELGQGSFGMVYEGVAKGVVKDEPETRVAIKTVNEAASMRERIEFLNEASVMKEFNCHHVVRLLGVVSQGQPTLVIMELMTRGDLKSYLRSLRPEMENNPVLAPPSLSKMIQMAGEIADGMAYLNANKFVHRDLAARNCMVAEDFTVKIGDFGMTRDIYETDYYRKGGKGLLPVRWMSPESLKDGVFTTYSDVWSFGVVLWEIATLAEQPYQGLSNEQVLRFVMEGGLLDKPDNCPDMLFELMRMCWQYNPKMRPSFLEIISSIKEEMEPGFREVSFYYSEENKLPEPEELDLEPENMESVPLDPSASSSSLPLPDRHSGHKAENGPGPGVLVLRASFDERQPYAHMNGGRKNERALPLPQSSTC

For the compound `CN1CCN(c2ccc(C(=O)Nc3n[nH]c4ccc(S(=O)(=O)c5ccccc5)cc34)cc2)CC1` [Compound 1, N-(5-Benzenesulfonyl-1H-indazol-3-yl)-4-(4-methyl-piperazin-1-yl)-benzamide], the IC50 at Aurora-2 was 26 nM. Also, the “inhibition of IGF1-induced IGF1R auto-phosphorylation” value on IGF-1R was “inhibition of IGF1-induced IGF1R auto-phosphorylation”.
The like results for `CN1CCN(c2ccc(C(=O)Nc3n[nH]c4ccc(S(=O)(=O)c5ccccc5)cc34)c(NC(=O)c3ccc[nH]3)c2)CC1` [Compound 33, 1H-pyrrole-2-carboxylic acid [2-(5-benzenesulfonyl-1H-indazol-3-ylcarbamoyl)-5-(4-methyl-piperazin-1-yl)-phenyl]amide] were, in that order, 9 nM and “inhibition of IGF1-induced IGF1R auto-phosphorylation”.
The like results for `CN1CCN(c2ccc(C(=O)Nc3n[nH]c4ccc(S(=O)(=O)c5ccccc5)cc34)c(NC(=O)[C@@H]3CCCO3)c2)CC1` [Compound 36, (S)-Tetrahydro-furan-2-carboxylic acid [2-(5-benzenesulfonyl-1H-indazol-3-ylcarbamoyl)-5-(4-methyl-piperazin-1-yl)-phenyl]-amide] were, in that order, 19 nM and “inhibition of IGF1-induced IGF1R auto-phosphorylation”.
